What was measured:
cancer cells = experiment: dose calculation for inhibition of growth of cancer cells; parameters: species or system human
mice = experiment: mouse in vivo toxicity study; conditions: oral, 2000 mg/kg everyday for 14 days vs water control
IL-6 = IL-6 inflammatory activity in IL-1α+TNFα treated cells; type: cell-based; conditions: dose of about 10 μg
Lung Carcinoma (A549) = experiment: anti-proliferative activity, wst-1, lung cancer cell line; type: cell-based, human
Description: Human tissue culture experiments—lung (A549), ovarian (OVCAR-3, SKOV), breast (MDA-MB-231) and prostate (PC-3) cancer cell lines were chosen to provide a broad profile of different cancer cell types and their response to treatment with the natural compound. Cell were seeded as a mono-layer in 96 well flat bottom Nunc tissue culture plates at a density of 10,000 cells per well and supplemented with RPMI 1640 media (Sigma Aldrich) containing 10% foetal calf serum, penicillin and streptomycin. Cells were then treated for 72 hours with a range of concentrations of MGDG either DMSO soluble, media soluble sample or the pure synthetic molecule. Four biological repetitions were tested for each dose. Activity of each treatment was then assessed using wst-1 reagent (Roche) as per the manufacturer's instructions. Data was visualised using a victor plate reader (Perkin Elmer) at a wavelength of 450 nm.

[1] = tested on: Neuroligin 2 5'UTR luciferase reporter; experiment: Neuroligin 2 5'UTR firefly luciferase reporter; type: cell-based
Source text: (§1) Transient transfection conditions and luciferase reporter constructs—Firefly luciferase reporter plasmids containing the 5′ untranslated regions (UTRs) of the genes Neuroligin 1 and Neuroligin 2 were a kind gift from Professor Nahum Sonenberg (McGill) and used as described by Gkogkas et al, 2013. Nature, 17; 371-377.
(§2) Cells were transfected using FuGene 6 (Roche) following the manufacturer's instructions. The activities of firefly and Renilla luciferase in lysates prepared from transfected cells were measured using a commercially available Luciferase reporter assay system (Promega) and light emission was measured over a 10 sec interval using either a TECAN luminometer. For each experiment described, data was obtained from a minimum of at least 3 biological repetitions per treatment.

[2] = tested on: Neuroligin 1 (5'UTR) luciferase reporter; experiment: Neuroligin 1 5'UTR firefly luciferase reporter; type: cell-based
Source text: as §1, §2

`CC/C=C\C/C=C\C/C=C\CCCCCCCC(=O)OC[C@H](COC1OC(CO)C(O)C(O)C1O)OC(=O)CCCCCCC/C=C\C/C=C\C/C=C\CC` (some centres unmarked) [MGDG, monogalactosyl diacylglycerol] was tested, and the “inhibition in the growth of cancer cells” value (cancer cells; daily dose of approximately 11 mgs, human) was 50%, the “inhibition in the growth of cancer cells” value (cancer cells; dose of approximately 5.5 mgs in a 60kg human) was 30% and the “survival or weight / toxicity” value (mice) was “no difference in survival or weight”. The “reduction of IL-6 inflammatory activity” value (IL-6) was ~80%, the “anti-cancer / anti-proliferative activity” value (Lung Carcinoma (A549)) was “anti-proliferative effects” and the “effect on Neuroligin 2 reporter activity” value [1] was “unaffected”. The “effect on Neuroligin 1 reporter” value [2] was “can be dampened” and the “reduction in the levels of Neuroligin 1” value ([2]; 10 μM dose, luciferase reporter system) was “about 35%”.
